Measurements as given in ChEMBL document CHEMBL3102795, “Discovery of 1-oxa-4,9-diazaspiro[5.5]undecane-based trisubstituted urea derivatives as highly potent soluble epoxide hydrolase inhibitors and orally active drug candidates for treating of chronic kidney diseases” (Bioorg Med Chem Lett, 2014).
In brackets after ≈: the same amount, converted by molar mass.

System: not listed separately
Assay: Solubility of the compound in simulated intestinal fluid compliant with Japanese pharmacopeia
Type: ADME

| SMILES | solubility [µg/mL] |
| --- | --- |
| O=C(Nc1ccc(C(F)(F)F)cc1)N1CCOC2(CCN(C(=O)c3ccco3)CC2)C1 | 75 (≈ 171 µM) |
| O=C(Nc1ccc(OC(F)(F)F)cc1)N1CCOC2(CCN(C(=O)c3cnoc3C3CC3)CC2)C1 | 89 (≈ 180 µM) |
| COc1ccccc1CC(=O)N1CCC2(CC1)CN(C(=O)Nc1ccc(OC(F)(F)F)cc1)CCO2 | 59 (≈ 116 µM) |
| O=C(Nc1ccc(OC(F)(F)F)cc1)N1CCOC2(CCN(C(=O)c3c[nH]nc3C3CC3)CC2)C1 | 92 (≈ 186 µM) |
| O=C(Nc1ccc(C(F)(F)F)cc1)N1CCOC2(CCN(C(=O)c3ccccn3)CC2)C1 | 83 (≈ 185 µM) |
| O=C(Nc1ccc(OC(F)(F)F)cc1)N1CCOC2(CCN(C(=O)c3cc(Cl)ccn3)CC2)C1 | 89 (≈ 178 µM) |
| O=C(Nc1ccc(C(F)(F)F)cc1)N1CCOC2(CCN(C(=O)c3ccccc3)CC2)C1 | 63 (≈ 141 µM) |

System: not listed separately
Assay: Solubility of the compound in simulated gastric fluid compliant with Japanese pharmacopeia
Type: ADME

| SMILES | solubility [µg/mL] |
| --- | --- |
| O=C(Nc1ccc(C(F)(F)F)cc1)N1CCOC2(CCN(C(=O)c3ccco3)CC2)C1 | 75 (≈ 171 µM) |
| O=C(Nc1ccc(OC(F)(F)F)cc1)N1CCOC2(CCN(C(=O)c3cnoc3C3CC3)CC2)C1 | 86 (≈ 174 µM) |
| COc1ccccc1CC(=O)N1CCC2(CC1)CN(C(=O)Nc1ccc(OC(F)(F)F)cc1)CCO2 | 66 (≈ 130 µM) |
| O=C(Nc1ccc(OC(F)(F)F)cc1)N1CCOC2(CCN(C(=O)c3c[nH]nc3C3CC3)CC2)C1 | 93 (≈ 188 µM) |
| O=C(Nc1ccc(C(F)(F)F)cc1)N1CCOC2(CCN(C(=O)c3ccccn3)CC2)C1 | 85 (≈ 190 µM) |
| O=C(Nc1ccc(OC(F)(F)F)cc1)N1CCOC2(CCN(C(=O)c3cc(Cl)ccn3)CC2)C1 | 90 (≈ 180 µM) |
| O=C(Nc1ccc(C(F)(F)F)cc1)N1CCOC2(CCN(C(=O)c3ccccc3)CC2)C1 | 62 (≈ 139 µM) |

Target: T1, Bifunctional epoxide hydrolase 2 (Homo sapiens, UniProt P34913)
T1 sequence (P34913 whole entry): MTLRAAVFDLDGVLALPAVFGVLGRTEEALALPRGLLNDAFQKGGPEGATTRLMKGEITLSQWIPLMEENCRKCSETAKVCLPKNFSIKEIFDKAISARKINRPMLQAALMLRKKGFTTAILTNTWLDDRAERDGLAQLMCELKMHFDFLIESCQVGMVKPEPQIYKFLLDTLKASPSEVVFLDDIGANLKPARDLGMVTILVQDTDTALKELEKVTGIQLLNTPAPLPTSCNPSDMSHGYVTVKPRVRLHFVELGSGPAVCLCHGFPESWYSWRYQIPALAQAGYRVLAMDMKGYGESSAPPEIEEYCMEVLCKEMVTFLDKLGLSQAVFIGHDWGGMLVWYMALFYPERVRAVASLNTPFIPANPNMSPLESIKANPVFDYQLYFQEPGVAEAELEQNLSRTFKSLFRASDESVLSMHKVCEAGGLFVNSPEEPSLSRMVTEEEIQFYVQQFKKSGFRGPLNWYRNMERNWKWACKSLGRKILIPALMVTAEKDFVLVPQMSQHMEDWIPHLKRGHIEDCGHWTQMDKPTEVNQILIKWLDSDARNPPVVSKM
Assay: Inhibition of human recombinant sEH expressed in baculovirus infected insect Sf9 cells using cyano(6-methoxynaphthalen-2-yl)methyl trans-[(3-phenyloxiran-2-yl)methyl] carbonate as substrate preincubated for 30 mins followed by substrate addition measured after 20 to 45 mins by fluorescence assay

| SMILES | IC50 [nM] |
| --- | --- |
| O=C(Nc1ccc(C(F)(F)F)cc1)N1CCOC2(CCN(C(=O)c3ccco3)CC2)C1 | 5.4 |
| O=C(Nc1ccc(OC(F)(F)F)cc1)N1CCOC2(CCN(C(=O)c3cnoc3C3CC3)CC2)C1 | 0.6 |
| COc1ccccc1CC(=O)N1CCC2(CC1)CN(C(=O)Nc1ccc(OC(F)(F)F)cc1)CCO2 | 0.5 |
| O=C(Nc1ccc(OC(F)(F)F)cc1)N1CCOC2(CCN(C(=O)c3c[nH]nc3C3CC3)CC2)C1 | 1.1 |
| O=C(Nc1ccc(C(F)(F)F)cc1)N1CCOC2(CCN(C(=O)c3ccccn3)CC2)C1 | 4.2 |
| O=C(Nc1ccc(OC(F)(F)F)cc1)N1CCOC2(CCN(C(=O)c3cc(Cl)ccn3)CC2)C1 | 0.6 |
| O=C(Nc1ccc(C(F)(F)F)cc1)N1CCOC2(CCN(C(=O)c3ccccc3)CC2)C1 | 3.2 |

Target: T2, Bifunctional epoxide hydrolase 2 (Rattus norvegicus, UniProt P80299)
T2 sequence (P80299 whole entry): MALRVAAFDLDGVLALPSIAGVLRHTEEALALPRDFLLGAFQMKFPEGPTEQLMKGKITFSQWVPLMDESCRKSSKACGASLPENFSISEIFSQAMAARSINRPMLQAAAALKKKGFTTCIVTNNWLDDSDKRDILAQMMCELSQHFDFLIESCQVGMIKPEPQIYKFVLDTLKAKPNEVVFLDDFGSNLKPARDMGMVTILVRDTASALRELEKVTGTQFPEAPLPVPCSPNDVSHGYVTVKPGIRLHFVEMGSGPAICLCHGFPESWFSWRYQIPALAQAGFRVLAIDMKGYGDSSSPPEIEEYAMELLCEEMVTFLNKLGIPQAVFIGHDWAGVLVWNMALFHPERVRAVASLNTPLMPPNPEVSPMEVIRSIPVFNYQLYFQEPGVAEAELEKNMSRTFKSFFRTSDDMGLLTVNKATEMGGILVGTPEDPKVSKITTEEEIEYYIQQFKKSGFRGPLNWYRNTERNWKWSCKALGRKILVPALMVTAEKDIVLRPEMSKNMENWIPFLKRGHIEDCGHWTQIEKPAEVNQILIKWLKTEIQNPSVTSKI
Assay: Inhibition of rat recombinant sEH expressed in baculovirus infected insect Sf9 cells using cyano(6-methoxynaphthalen-2-yl)methyl trans-[(3-phenyloxiran-2-yl)methyl] carbonate as substrate preincubated for 30 mins followed by substrate addition measured after 20 to 45 mins by fluorescence assay

| SMILES | IC50 [nM] |
| --- | --- |
| O=C(Nc1ccc(OC(F)(F)F)cc1)N1CCOC2(CCN(C(=O)c3cnoc3C3CC3)CC2)C1 | 22.2 |
| COc1ccccc1CC(=O)N1CCC2(CC1)CN(C(=O)Nc1ccc(OC(F)(F)F)cc1)CCO2 | 71.6 |
| O=C(Nc1ccc(OC(F)(F)F)cc1)N1CCOC2(CCN(C(=O)c3c[nH]nc3C3CC3)CC2)C1 | 96.9 |
| O=C(Nc1ccc(OC(F)(F)F)cc1)N1CCOC2(CCN(C(=O)c3cc(Cl)ccn3)CC2)C1 | 11.6 |

System: Liver microsome
Assay: Metabolic stability in human liver microsomes measured per mg of protein
Type: ADME

| SMILES | CLint [µL/min/mg] |
| --- | --- |
| O=C(Nc1ccc(OC(F)(F)F)cc1)N1CCOC2(CCN(C(=O)c3cnoc3C3CC3)CC2)C1 | 87 |
| COc1ccccc1CC(=O)N1CCC2(CC1)CN(C(=O)Nc1ccc(OC(F)(F)F)cc1)CCO2 | 461 |
| O=C(Nc1ccc(OC(F)(F)F)cc1)N1CCOC2(CCN(C(=O)c3c[nH]nc3C3CC3)CC2)C1 | 35 |
| O=C(Nc1ccc(OC(F)(F)F)cc1)N1CCOC2(CCN(C(=O)c3cc(Cl)ccn3)CC2)C1 | 62 |
